Data on 14 compounds can be found in patent US20250120948A1, “Small Molecules G(alpha)I2 Inhibitors and Combination With Anticancer Drugs and Use Thereof” (Georgia Tech Research Corporation, priority 2023, published 2025).

One series has as its system PC3 cells. The series can be described thus: Transwell migration assay in PC3 prostate cancer cells. It counts as cell-based, human. The note with it: for effect on PC3 cell migration: compounds tested at 0.1 to 100 μM, compared with 14; for effect of chemotherapeutic drug on cell migration in PC3 cells: drug alone; for block of SAHA-stimulated cell migration in PC3 cells / block of docetaxel-stimulated cell migration in PC3 cells: second generation inhibitors at 20 μM, simultaneous treatment. The protocol: (§1) In vitro transwell migration assays were conducted as described previously (Caggia et al., “Novel Role of Gialpha2 in Cell Migration: Downstream of PI3-kinase-AKT and RacI in Prostate Cancer Cells,” J Cell Physiol, 234:802-815 (2018); Caggia et al., “Small Molecule Inhibitors Targeting Galphai2 Protein Attenuate Migration of Cancer Cells,” Cancers (Basel), 12(6):1631 (2020)). Briefly, the outside of the transwell inserts (BD Biosciences, San Jose, CA) were coated with 50 μl of rat tail collagen ([…]; BD Biosciences, San Jose, CA) overnight at 4° C. The next day, 50 μl of the aforementioned rat tail collagen were added for 1 hour at room temperature into the transwell inserts, to coat the inside of the membranes. DU145, PC3 and LNCaP cells were trypsinized and suspended at the appropriate density (3×10^5 cells/insert for DU145 and PC3, and 5×10^5 cells/insert for LNCaP) in MEM or RPMI containing 0.2% BSA (Sigma-Aldrich, St. Louis, MO). Chemoattractant solution, used as positive control, was made by diluting the epidermal growth factor (EGF) (10 ng/ml) into MEM (PC3 and DU145) or RPMI (LNCaP) supplemented with 0.2% BSA. Media containing 0.2% BSA served as a control. Control and EGF solutions ([…]) were added into the wells of a 24-well plate. Aliquots of 100 μl of cell suspensions, treated with or without the different compounds at several concentrations, were loaded into the transwell inserts and the plates were incubated at 37° C. for 5 hours (DU145 and PC3) or 24 hours (LNCaP). The cells inside the transwell inserts were removed by cotton swabs, and the cleaned inserts were fixed with 350 μl of 4% paraformaldehyde (pH 7.5) for 20 minutes at room temperature. Cells that had migrated to the outside of the transwell insert membrane were stained with 3 ng/ml of DAPI solution (Thermo Fisher Scientific, Eugene, OR) and images of five non-overlapping fields were captured using Axiovert 200M, Carl Zeiss (Thornwood, NY) microscope. The number of stained nuclei were determined with automatic counting using image analysis software (ZEN 2012; Carl Zeiss). Results were expressed as migration index defined as the average number of cells per field for test substance/the average number of cells per field for the medium control.
The effects of the newly synthesized compounds on the migratory behavior of PC3 cells were investigated in transwell migration assays as inventors have done before (Caggia et al., “Small Molecule Inhibitors Targeting Galphai2 Protein Attenuate Migration of Cancer Cells,” Cancers (Basel), 12(6):1631 (2020)). Compounds were tested at a concentration range of 0.1 to 100 μM. […] To potentially obtain insight into the disparity in their Gαi inhibition activities, molecular docking was performed on the enantiomers of 6 (6-R and 6-S) and 15 (15-R and 15-S). […] This slightly weaker binding affinity may partially explain the disproportionately weaker potency of 15 relative to 6. Other molecular factors, such as those which led to the attenuated potency observed with amino- to ether-group switch in the 7/10 pair, may contribute to the reduced potency of 15. Finally, most of these compounds have no effects on the morphology of PC3 cells or viability of several cancer cells at the concentrations as high as 100 μM.

The test system of another series is LNCaP cells. Briefly: Transwell migration assay in LNCaP prostate cancer cells. It counts as cell-based, human. The settings on record: drug alone; for effect of chemotherapeutic drug on cell migration in LNCaP cells: several concentrations, 24 hours. The protocol:
as §1
To determine the effects of HDACi on prostate cancer cell migration, migration assays were performed in androgen receptor (AR)-positive LNCaP cells using several concentrations of SAHA (0.1, 0.25, 0.5, 1, 2, 4 μM), a commercially available HDACi. […] Inventors have previously developed a very potent HDACi inhibitor (SBI-I-19), coupled with an anti-androgen, enzalutamide, which selectively targets androgen sensitive prostate cancer cells for its cytotoxic effects (Gryder et al., “Selectively Targeting Prostate Cancer with Antiandrogen Equipped Histone Deacetylase Inhibitors,” ACS Chem Biol, 8:2550-2560 (2013)). The possible effects of different concentrations of SBI-I-19 on cell migration in LNCaP cells were determined.

In the next series the test system is DU145 cells. Briefly: Transwell migration assay in DU145 prostate cancer cells. The note with it: drug alone. It counts as cell-based, human. The protocol:
In vitro transwell migration assays were conducted as described previously (Caggia et al., “Novel Role of Gialpha2 in Cell Migration: Downstream of PI3-kinase-AKT and RacI in Prostate Cancer Cells,” J Cell Physiol, 234:802-815 (2018); Caggia et al., “Small Molecule Inhibitors Targeting Galphai2 Protein Attenuate Migration of Cancer Cells,” Cancers (Basel), 12(6):1631 (2020)). Briefly, the outside of the transwell inserts (BD Biosciences, San Jose, CA) were coated with 50 μl of rat tail collagen ([…]; BD Biosciences, San Jose, CA) overnight at 4° C. The next day, 50 μl of the aforementioned rat tail collagen were added for 1 hour at room temperature into the transwell inserts, to coat the inside of the membranes. DU145, PC3 and LNCaP cells were trypsinized and suspended at the appropriate density (3×10^5 cells/insert for DU145 and PC3, and 5×10^5 cells/insert for LNCaP) in MEM or RPMI containing 0.2% BSA (Sigma-Aldrich, St. Louis, MO). Chemoattractant solution, used as positive control, was made by diluting the epidermal growth factor (EGF) (10 ng/ml) into MEM (PC3 and DU145) or RPMI (LNCaP) supplemented with 0.2% BSA. Media containing 0.2% BSA served as a control. Control and EGF solutions ([…]) were added into the wells of a 24-well plate. Aliquots of 100 μl of cell suspensions, treated with or without the different compounds at several concentrations, were loaded into the transwell inserts and the plates were incubated at 37° C. for 5 hours (DU145 and PC3) or 24 hours (LNCaP). […] The number of stained nuclei were determined with automatic counting using image analysis software (ZEN 2012; Carl Zeiss). Results were expressed as migration index defined as the average number of cells per field for test substance/the average number of cells per field for the medium control.
To determine whether the induction of cell migration by AR-antagonists and HDACi was limited to only AR-positive cells, the effects of anti-androgens and HDACi and docetaxel in AR-negative DU145 and PC3 cells were determined.

Series [1] can be described thus: Stability in mouse liver microsomes. It counts as in vitro ADME. The protocol: (§2) On the strength of their potency, the stability of 6, 7 and 10 was determined in human and mouse plasma and liver microsomes.
In general terms: Liver microsomes are vesicles of endoplasmic reticulum, rich in cytochrome P450 enzymes.

Series [2] is described as follows: Stability in human liver microsomes. It counts as in vitro ADME. The protocol:
as §2

Turning to `Cn1c(CNc2ccc(O)cc2)cc2ccccc21` [Compound 5, 4-(((1-methyl-1H-indol-2-yl)methyl)amino)phenol], the “effect on PC3 cell migration” value with PC3 cells was “comparable potency”.
With `CSc1ccc(/N=C(\C)c2cc3ccccc3n2C)cc1` [Compound 4, (E)-1-(1-methyl-1H-indol-2-yl)-N-(4-(methylthio)phenyl)ethan-1-imine], the “effect on PC3 cell migration” value in the series on PC3 cells is listed as “concentration dependent reduction of PC3 cell migration, but less efficiently relative to 14”.
Take `CC1(C)C(=O)N(c2ccc(C#N)c(C(F)(F)F)c2)C(=O)N1Cc1ccc(-c2cn(CCCCC(=O)NO)nn2)cc1` [SBI-I-19]: in the series with LNCaP cells, the “effect of chemotherapeutic drug on cell migration in LNCaP cells” value (from here on “effect … in LNCaP cells”) is recorded as “significant dose-dependent increase in cell migration”. Further, the “effect of chemotherapeutic drug on cell migration in DU145 cells” value (from here on “effect … in DU145 cells”) with DU145 cells is reported as “increased cell migration”.
Take `CC(Oc1ccc(S(C)(=O)=O)cc1)c1cc2ccccc2n1C` (racemic) [Compound 12, 1-methyl-2-(1-(4-(methylsulfonyl)phenoxy)ethyl)-1H-indole]: the “effect on PC3 cell migration” value in the series with PC3 cells was “less effective, eliciting reduced anti-migration activities relative to the other compounds”.
With `CC(=O)O[C@@]12CO[C@@H]1C[C@H](O)[C@@]1(C)C(=O)[C@H](O)C3=C(C)[C@@H](OC(=O)[C@H](O)[C@@H](NC(=O)OC(C)(C)C)c4ccccc4)C[C@@](O)([C@@H](OC(=O)c4ccccc4)[C@H]21)C3(C)C` [docetaxel, reference compound], the “effect of chemotherapeutic drug on cell migration in PC3 cells” value in the series with PC3 cells is “induced increase in cell migration”.
Regarding `O=C(CCCCCCC(=O)Nc1ccccc1)NO` [SAHA], the “effect … in LNCaP cells” value in the series on LNCaP cells is “significant dose-dependent increase in cell migration”. Also, the “effect … in DU145 cells” value in the series with DU145 cells is “increased cell migration”. Moreover, the “effect of chemotherapeutic drug on cell migration in PC3 cells” value in the series with PC3 cells is recorded as “induced increase in cell migration”.
On to `CSc1ccc(NC(C)c2cc3ccccc3n2C)cc1` (racemic) [Compound 7, N-(1-(1-methyl-1H-indol-2-yl)ethyl)-4-(methylthio)aniline], for which the “block of stimulatory effects of EGF on PC3 cell migration” value with PC3 cells (EGF-stimulated) is “blocks the stimulatory effects of EFG on PC3 cell migration”. In the series with PC3 cells, the “effect on PC3 cell migration” value was “more effective relative to 14”; the “block of SAHA-stimulated cell migration in PC3 cells” value is “blocked the stimulatory effects of docetaxel and SAHA in PC3 cells”; the “block of docetaxel-stimulated cell migration in PC3 cells” value was “blocked the stimulatory effects of docetaxel and SAHA in PC3 cells”. Besides, in series [1], the “stability in liver microsomes” value is given as “only stable in the human microsome”. Also, the “stability in liver microsomes” value in series [2] is “only stable in the human microsome”.
For `Cn1c(/C=N/c2ccc(O)cc2)cc2ccccc21` [Compound 3, (E)-4-(((1-methyl-1H-indol-2-yl)methylene)amino)phenol], the “effect on PC3 cell migration” value in the series on PC3 cells is given as “concentration dependent reduction of PC3 cell migration, but less efficiently relative to 14”.
With `CSc1ccc(OC(C)c2cc3ccccc3n2C)cc1` (stereo not drawn) [Compound 10, 1-methyl-2-(1-(4-(methylthio)phenoxy)ethyl)-1H-indole], in the series with PC3 cells, the “effect on PC3 cell migration” value was “less potent compared to 7”; the “block of SAHA-stimulated cell migration in PC3 cells” value was “blocked the stimulatory effects of docetaxel and SAHA in PC3 cells”; the “block of docetaxel-stimulated cell migration in PC3 cells” value is “blocked the stimulatory effects of docetaxel and SAHA in PC3 cells”. The “stability in liver microsomes” value in series [1] is given as “only stable in the human microsome”. In series [2], the “stability in liver microsomes” value is listed as “only stable in the human microsome”.
Consider `CC(Oc1ccc([S+](C)[O-])cc1)c1cc2ccccc2n1C` (stereo not drawn) [Compound 13, 1-methyl-2-(1-(4-(methylsulfinyl)phenoxy)ethyl)-1H-indole], for which the “effect on PC3 cell migration” value in the series on PC3 cells was “less effective, eliciting reduced anti-migration activities relative to the other compounds”.
`CNC(=O)c1ccc(N2C(=S)N(c3ccc(C#N)c(C(F)(F)F)c3)C(=O)C2(C)C)cc1F` [enzalutamide]: in the series with LNCaP cells, the “concentration of maximum induction of cell migration in LNCaP cells” value amounted to 2.5 µM and the “effect … in LNCaP cells” value is on record as “dose-dependent increase in cell migration”. Further, the “effect … in DU145 cells” value with DU145 cells was “increased cell migration”.
Consider `CC(O)(CS(=O)(=O)c1ccc(F)cc1)C(=O)Nc1ccc(C#N)c(C(F)(F)F)c1` (stereo not drawn) [bicalutamide], for which the “concentration of maximum induction of cell migration in LNCaP cells” value in the series with LNCaP cells was determined as 2.5 µM.
On to `CC(Nc1ccc(O)cc1)c1cc2ccccc2n1C` (racemic) [Compound 6, 4-((1-(1-methyl-1H-indol-2-yl)ethyl)amino)phenol], for which the “block of stimulatory effects of Docetaxel on PC3 cell migration” value in the series with PC3 cells (FIG. 13, concentration not given) is “block the stimulatory effects of Docetaxel on PC3 cell migration”. Also, in the series on PC3 cells, the “effect on PC3 cell migration” value is given as “more effective relative to 14”; the “block of SAHA-stimulated cell migration in PC3 cells” value was “blocked the stimulatory effects of docetaxel and SAHA in PC3 cells”; the “block of docetaxel-stimulated cell migration in PC3 cells” value was “blocked the stimulatory effects of docetaxel and SAHA in PC3 cells”. The “stability in liver microsomes” value in series [1] is reported as “robustly stable in both species”. In series [2], the “stability in liver microsomes” value was “robustly stable in both species”.
Consider `CC(Oc1ccc(O)cc1)c1cc2ccccc2n1C` (racemic) [Compound 15, 4-(1-(1-methyl-1H-indol-2-yl)ethoxy)phenol], for which the “effect on PC3 cell migration” value in the series with PC3 cells was “did not inhibit the migration of PC3 cells at the maximum concentration tested”.
